One block for each compound: values may come before it.
Legend:
[1] = molecular target: T1, Insulin-like growth factor 1 receptor (Homo sapiens, UniProt P08069); assay: Inhibition of human GST-rTEV-tagged IGF1R (957 to 1367 residues) expressed in baculovirus infected insect Sf9 cells assessed as decrease in biotin-aminohexyl-AEEEEYMMMMAKKKK-NH2 phosphorylation after 1 hr by fluorometer
Insulin receptor [2] = molecular target: T2, Insulin receptor (Homo sapiens, UniProt P06213); assay: Inhibition of human GST-rTEV-tagged insulin receptor (979 to 1382 residues) expressed in baculovirus infected insect Sf9 cells assessed as decrease in biotin-aminohexyl-AEEEEYMMMMAKKKK-NH2 phosphorylation after 1 hr by fluorometer
T2 sequence (P06213 28-758 limits assumed): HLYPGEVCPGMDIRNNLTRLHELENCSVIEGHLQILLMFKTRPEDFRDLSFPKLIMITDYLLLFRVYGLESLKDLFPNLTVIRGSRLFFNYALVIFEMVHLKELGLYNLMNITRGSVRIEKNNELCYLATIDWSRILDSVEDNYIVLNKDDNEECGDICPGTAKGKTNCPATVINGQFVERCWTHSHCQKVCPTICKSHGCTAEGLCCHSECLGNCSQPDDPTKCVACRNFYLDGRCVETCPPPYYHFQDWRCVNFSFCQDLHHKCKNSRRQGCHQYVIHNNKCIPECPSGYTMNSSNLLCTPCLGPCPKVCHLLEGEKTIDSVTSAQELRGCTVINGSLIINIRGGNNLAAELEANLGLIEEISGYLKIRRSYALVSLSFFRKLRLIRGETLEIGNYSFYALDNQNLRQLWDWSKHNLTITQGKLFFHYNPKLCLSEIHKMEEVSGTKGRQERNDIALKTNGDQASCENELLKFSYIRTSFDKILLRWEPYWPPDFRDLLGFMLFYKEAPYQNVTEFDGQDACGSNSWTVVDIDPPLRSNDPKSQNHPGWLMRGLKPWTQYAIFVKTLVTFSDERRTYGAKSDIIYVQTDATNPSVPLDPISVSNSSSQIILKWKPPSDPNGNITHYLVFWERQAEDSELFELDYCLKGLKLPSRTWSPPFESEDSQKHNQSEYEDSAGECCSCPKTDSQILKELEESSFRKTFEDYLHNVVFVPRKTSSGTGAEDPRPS
T2 sequence (P06213 763-1382 limits assumed): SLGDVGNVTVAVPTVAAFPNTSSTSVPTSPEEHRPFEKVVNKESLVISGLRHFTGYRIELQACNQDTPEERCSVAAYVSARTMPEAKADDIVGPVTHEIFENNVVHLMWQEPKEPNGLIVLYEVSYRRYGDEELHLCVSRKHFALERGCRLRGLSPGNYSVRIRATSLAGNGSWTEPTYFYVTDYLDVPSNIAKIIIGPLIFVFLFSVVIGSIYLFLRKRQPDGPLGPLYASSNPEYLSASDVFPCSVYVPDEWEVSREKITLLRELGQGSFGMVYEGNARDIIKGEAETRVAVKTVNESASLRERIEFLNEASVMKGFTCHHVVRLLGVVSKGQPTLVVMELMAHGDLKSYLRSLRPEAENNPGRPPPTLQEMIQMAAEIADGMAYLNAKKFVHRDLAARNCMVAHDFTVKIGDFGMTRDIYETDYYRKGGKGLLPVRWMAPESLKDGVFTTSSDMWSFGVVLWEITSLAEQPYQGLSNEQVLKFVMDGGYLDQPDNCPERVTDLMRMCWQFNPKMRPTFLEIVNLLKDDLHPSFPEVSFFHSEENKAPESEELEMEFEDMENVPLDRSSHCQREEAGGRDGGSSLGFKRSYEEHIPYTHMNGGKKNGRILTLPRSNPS

[3] = molecular target: T1, Insulin-like growth factor 1 receptor; assay: Inhibition of IGF1-induced human IGF1R autophosphorylation expressed in mouse NIH-3T3 cells preincubated for 2 hrs followed by IGF-1 induction measured after 15 mins by DELFIA; assay type: cell-based, NIH3T3
Insulin receptor [4] = molecular target: T2, Insulin receptor; assay: Inhibition of insulin-induced human insulin receptor autophosphorylation expressed in mouse NIH-3T3 cells preincubated for 2 hrs followed by insulin induction measured after 15 mins by DELFIA; assay type: cell-based, NIH3T3
[5] = Cytotoxicity against human NCI-H929 cells assessed as cell growth inhibition after 72 hrs by Cell Titre Glo assay; assay type: functional, cell-based; conditions: NCI-H929, 72 h
[6] = Cytotoxicity against human COLO205 cells assessed as cell growth inhibition after 72 hrs by Cell Titre Glo assay; assay type: functional, cell-based; conditions: COLO 205, 72 h
[7] = Toxicity in nude mouse allografted with mouse LISN cells assessed as body weight loss at 50 to 100 mg/kg, qd for 21 days measured during compound dosing; assay type: organism-based; conditions: 504 h
[8] = Toxicity in nude mouse allografted with mouse LISN cells assessed as body weight loss at 30 mg/kg, qd for 21 days measured during compound dosing relative to control; assay type: organism-based; conditions: in vivo, 504 h
[9] = Toxicity in nude mouse allografted with mouse LISN cells assessed as body weight loss at 60 mg/kg, qd for 21 days measured during compound dosing relative to control; assay type: organism-based; conditions: in vivo, 504 h
[10] = Cytotoxicity against human CESS cells after 3 days by InCell analyser assay; assay type: functional, cell-based; conditions: 72 h
[11] = Cytotoxicity against human SCLC3 cells after 3 days by InCell analyser assay; assay type: functional, cell-based; conditions: SCLC3, 72 h
[12] = Cytotoxicity against HOS cells after 3 days by InCell analyser assay; assay type: functional, cell-based; conditions: Homo sapiens, 72 h
[13] = Cytotoxicity against human Y79 cells after 3 days by InCell analyser assay; assay type: functional, cell-based; conditions: Y79, 72 h
[14] = Cytotoxicity against human M14 cells after 3 days by InCell analyser assay; assay type: functional, cell-based; conditions: M14, 72 h
[15] = Cytotoxicity against human MC/CAR cells after 3 days by InCell analyser assay; assay type: functional, cell-based; conditions: 72 h
[16] = Cytotoxicity against human DK-MG cells after 3 days by InCell analyser assay; assay type: functional, cell-based; conditions: 72 h
[17] = Cytotoxicity against human BC1 cells after 3 days by InCell analyser assay; assay type: functional, cell-based; conditions: BC1, 72 h
[18] = Cytotoxicity against human J82 cells after 3 days by InCell analyser assay; assay type: functional, cell-based; conditions: J82, 72 h
[19] = Cytotoxicity against human JAR cells after 3 days by InCell analyser assay; assay type: functional, cell-based; conditions: 72 h
[20] = Cytotoxicity against human HT3 cells after 3 days by InCell analyser assay; assay type: functional, cell-based; conditions: HT-3, 72 h
[21] = Cytotoxicity against human DB cells after 3 days by InCell analyser assay; assay type: functional, cell-based; conditions: 72 h
[22] = Cytotoxicity against human C-4I cells after 3 days by InCell analyser assay; assay type: functional, cell-based; conditions: 72 h
[23] = Cytotoxicity against human MT3 cells after 3 days by InCell analyser assay; assay type: functional, cell-based; conditions: MT-3, 72 h
[24] = Cytotoxicity against human GCT cells after 3 days by InCell analyser assay; assay type: functional, cell-based; conditions: 72 h
[25] = Cytotoxicity against human SH4 cells after 3 days by InCell analyser assay; assay type: functional, cell-based; conditions: SH-4, 72 h
[26] = Cytotoxicity against human RL cells after 3 days by InCell analyser assay; assay type: functional, cell-based; conditions: 72 h
[27] = Cytotoxicity against human U266B1 cells after 3 days by InCell analyser assay; assay type: functional, cell-based; conditions: U-266, 72 h
[28] = Cytotoxicity against human NALM1 cells after 3 days by InCell analyser assay; assay type: functional, cell-based; conditions: NALM1, 72 h
[29] = Cytotoxicity against human H4 cells after 3 days by InCell analyser assay; assay type: functional, cell-based; conditions: H4, 72 h
[30] = Cytotoxicity against human BC3 cells after 3 days by InCell analyser assay; assay type: functional, cell-based; conditions: BC-3, 72 h
[31] = Cytotoxicity against human AGS cells after 3 days by InCell analyser assay; assay type: functional, cell-based; conditions: 72 h
[32] = Cytotoxicity against human ES2 cells after 3 days by InCell analyser assay; assay type: functional, cell-based; conditions: ES-2, 72 h
[33] = Cytotoxicity against human A7 cells after 3 days by InCell analyser assay; assay type: functional, cell-based; conditions: 72 h
[34] = Cytotoxicity against human SR cells after 3 days by InCell analyser assay; assay type: functional, cell-based; conditions: 72 h
[35] = Cytotoxicity against human BC2 cells after 3 days by InCell analyser assay; assay type: functional, cell-based; conditions: BC-2, 72 h
[36] = Cytotoxicity against human T24 cells after 3 days by InCell analyser assay; assay type: functional, cell-based; conditions: T-24, 72 h
[37] = Cytotoxicity against human ML2 cells after 3 days by InCell analyser assay; assay type: functional, cell-based; conditions: ML-2, 72 h
[38] = Cytotoxicity against human EM2 cells after 3 days by InCell analyser assay; assay type: functional, cell-based; conditions: EM-2, 72 h
[39] = Cytotoxicity against human MJ cells after 3 days by InCell analyser assay; assay type: functional, cell-based; conditions: 72 h
[40] = Cytotoxicity against human 5637 cells after 3 days by InCell analyser assay; assay type: functional, cell-based; conditions: Homo sapiens, 5637, 72 h
[41] = Cytotoxicity against human KLE cells after 3 days by InCell analyser assay; assay type: functional, cell-based; conditions: 72 h
[42] = Cytotoxicity against human RD cells after 3 days by InCell analyser assay; assay type: functional, cell-based; conditions: 72 h
[43] = Cytotoxicity against human C3A cells after 3 days by InCell analyser assay; assay type: functional, cell-based; conditions: 72 h
[44] = Cytotoxicity against human MX1 cells after 3 days by InCell analyser assay; assay type: functional, cell-based; conditions: MX1, 72 h
[45] = Cytotoxicity against human HN5 cells after 3 days by InCell analyser assay; assay type: functional, cell-based; conditions: HN5, 72 h

SMILES: COc1cc(N2CCC(CCS(C)(=O)=O)CC2)ccc1Nc1nccc(-c2c(-c3ccc(OC)c(C(=O)Nc4c(F)cccc4F)c3)nc3cc(F)ccn23)n1
IC50 [1]: < 100 nM
IC50 (Insulin receptor [2]): < 100 nM

SMILES: COc1cc(N2CCC(N3CCCCC3)CC2)ccc1Nc1nccc(-c2c(-c3cccc(C(=O)Nc4c(F)cccc4F)c3)nc3cc(C(F)(F)F)ccn23)n1
IC50 [3]: 100 to 500 nM
IC50 [1]: < 100 nM
IC50 (Insulin receptor [4]): > 500 nM
IC50 (Insulin receptor [2]): < 100 nM

SMILES: COc1cc(N2CCC(N3CCN(CCF)CC3)CC2)c(Cl)cc1Nc1nccc(-c2c(-c3cccc(C(=O)Nc4c(F)cccc4F)c3)nc3ccccn23)n1
IC50 [5]: < 250 nM
IC50 [6]: 250 to 1000 nM

SMILES: CCOc1cc(N2CCC(CCS(C)(=O)=O)CC2)c(C)cc1Nc1nccc(-c2c(-c3ccc(OC)c(C(=O)Nc4c(F)cccc4F)c3)nc3cc(F)ccn23)n1
IC50 [1]: < 100 nM
IC50 (Insulin receptor [2]): < 100 nM

SMILES: COc1cc(C2CCN(CCS(C)(=O)=O)CC2)ccc1Nc1nccc(-c2c(-c3ccc(OC)c(C(=O)Nc4c(F)cccc4F)c3)nc3ccccn23)n1
IC50 [1]: < 100 nM
IC50 (Insulin receptor [2]): < 100 nM

SMILES: CCOc1cc(C2CCN(CCS(C)(=O)=O)CC2)ccc1Nc1nccc(-c2c(-c3ccc(OC(C)C)c(C(=O)Nc4c(F)cccc4F)c3)nc3ccccn23)n1
IC50 [3]: < 100 nM
IC50 [1]: 100 to 1000 nM
IC50 (Insulin receptor [2]): 100 to 1000 nM

SMILES: COc1cc(N2CCC(CCS(C)(=O)=O)CC2)c(C)cc1Nc1nccc(-c2c(-c3ccc(OC)c(C(=O)Nc4c(F)cccc4F)c3)nc3cc(F)ccn23)n1
IC50 [1]: < 100 nM
IC50 (Insulin receptor [4]): < 100 nM
IC50 (Insulin receptor [2]): < 100 nM

SMILES: CN(C)CCOc1cccc(Nc2nccc(-c3c(-c4cccc(C(=O)Nc5c(F)cc(F)cc5F)c4)nc4ccccn34)n2)c1
IC50 (Insulin receptor [2]): < 100 nM

SMILES: CCOc1cc(N2CCC(CCS(C)(=O)=O)CC2)c(C)cc1Nc1nccc(-c2c(-c3ccc(OC)c(C(=O)Nc4c(F)cccc4F)c3)nc3ccccn23)n1
Activity [7]: Non-Toxic

SMILES: CCc1cc(Nc2nccc(-c3c(-c4ccc(OC)c(C(=O)Nc5c(F)cccc5F)c4)nc4ccccn34)n2)c(OC)cc1N1CCC(N2CCN(S(C)(=O)=O)CC2)CC1
Activity [8]: Non-Toxic
Activity [9]: Non-Toxic

SMILES: COc1cc(N2CCC(N3CCCCC3)CC2)ccc1Nc1nccc(-c2c(-c3cccc(C(=O)Nc4c(F)cccc4F)c3)nc3ccccn23)n1
IC50 [10]: > 5 µM
IC50 [11]: 1000 to 5000 nM
IC50 [12]: < 1000 nM
IC50 [13]: > 5 µM
IC50 [14]: 1000 to 5000 nM
IC50 [15]: 1000 to 5000 nM
IC50 [16]: 1000 to 5000 nM
IC50 [17]: 1000 to 5000 nM
IC50 [18]: 1000 to 5000 nM
IC50 [19]: 1000 to 5000 nM
IC50 [20]: > 5 µM
IC50 [21]: 1000 to 5000 nM
IC50 [22]: 1000 to 5000 nM
IC50 [23]: < 1000 nM
IC50 [24]: 1000 to 5000 nM
IC50 [25]: 1000 to 5000 nM
IC50 [26]: 1000 to 5000 nM
IC50 [27]: 1000 to 5000 nM
IC50 [28]: 1000 to 5000 nM
IC50 [29]: > 5 µM
IC50 [30]: 1000 to 5000 nM
IC50 [31]: 1000 to 5000 nM
IC50 [32]: 1000 to 5000 nM
IC50 [33]: 1000 to 5000 nM
IC50 [34]: 1000 to 5000 nM
IC50 [35]: 1000 to 5000 nM
IC50 [36]: > 5 µM
IC50 [37]: > 5 µM
IC50 [38]: > 5 µM
IC50 [39]: 1000 to 5000 nM
IC50 [40]: > 5 µM
IC50 [41]: 1000 to 5000 nM
IC50 [42]: > 5 µM
IC50 [43]: 1000 to 5000 nM
IC50 [44]: 1000 to 5000 nM
IC50 [45]: 1000 to 5000 nM

Results, then the compound that gave them:

IC50 [1]: < 100 nM
IC50 (Insulin receptor [4]): < 100 nM
IC50 (Insulin receptor [2]): < 100 nM
SMILES: CCOc1cc(C2CCN(CCS(C)(=O)=O)CC2)ccc1Nc1nccc(-c2c(-c3ccc(OC)c(C(=O)Nc4c(F)cccc4F)c3)nc3ccccn23)n1

IC50 [1]: < 100 nM
IC50 (Insulin receptor [4]): < 100 nM
IC50 (Insulin receptor [2]): < 100 nM
SMILES: COc1cc(N2CCC(N3CCN(S(C)(=O)=O)CC3)CC2)ccc1Nc1nccc(-c2c(-c3ccc(OC)c(C(=O)Nc4c(F)cccc4F)c3)nc3ccccn23)n1

IC50 [3]: < 100 nM
IC50 [1]: 100 to 1000 nM
IC50 (Insulin receptor [4]): < 100 nM
IC50 (Insulin receptor [2]): < 100 nM
SMILES: CCOc1cc(N2CCN(CCS(C)(=O)=O)CC2)c(C)cc1Nc1nccc(-c2c(-c3ccc(OC(C)C)c(C(=O)Nc4c(F)cccc4F)c3)nc3ccccn23)n1

IC50 [1]: < 100 nM
IC50 (Insulin receptor [4]): < 100 nM
IC50 (Insulin receptor [2]): < 100 nM
SMILES: CCOc1ccc(-c2nc3ccccn3c2-c2ccnc(Nc3ccc(C4CCN(CCS(C)(=O)=O)CC4)cc3OC)n2)cc1C(=O)Nc1c(F)cccc1F

IC50 [1]: < 100 nM
IC50 (Insulin receptor [4]): < 100 nM
IC50 (Insulin receptor [2]): < 100 nM
SMILES: COc1cc(N2CCC(N3CCN(CCS(C)(=O)=O)CC3)CC2)c(C)cc1Nc1nccc(-c2c(-c3cccc(C(=O)Nc4c(F)cccc4F)c3)nc3ccccn23)n1

IC50 [1]: < 100 nM
IC50 (Insulin receptor [4]): < 100 nM
IC50 (Insulin receptor [2]): < 100 nM
SMILES: CCOc1cc(N2CCN(CCS(C)(=O)=O)CC2)c(C)cc1Nc1nccc(-c2c(-c3ccc(OC)c(C(=O)Nc4c(F)cccc4F)c3)nc3ccccn23)n1

IC50 [3]: < 100 nM
IC50 [1]: 100 to 1000 nM
IC50 (Insulin receptor [2]): 100 to 1000 nM
SMILES: CCOc1cc(N2CCC(N3CCN(S(C)(=O)=O)CC3)CC2)c(CC)cc1Nc1nccc(-c2c(-c3ccc(OCC)c(C(=O)Nc4c(F)cccc4F)c3)nc3ccccn23)n1
